Assay results taken from patent publication US7662810B2, “2-arylmethylazetidine carbapenem derivatives and preparation thereof” (Korea Research Institute of Chemical Technology, priority 2004, dated 2010).

Assays:
[1] = system: Staphylococcus aureus 88E; assay: Measurement of Minimum Inhibitory Concentration (MIC), MRSA; format: cell-based; conditions: Staphylococcus aureus 88E
Procedure: (§1) The antibacterial activities of the compounds of the present invention prepared in the above Examples against Gram-positive and Gram-negative bacteria, MRSA and QRS were tested as follows.
(§2) Respective bacterial strains were inoculated into 3 ml of Fleisch extract broth (beef extract 1%, peptone 1%, NaCl 0.3%, Na2HPO4.12H2O 0.2%, pH 7.4-7.5. 10% horse serum was supplemented for Streptococcus pyogenes and S. facium) and cultured on a shaking incubator at 37° C. for 18 hours. About 10^4 CFU/spot of the cultured bacterial strains were inoculated onto Müller-Hinton agar plates containing serial double dilutions (final concentration of 0.002 to 100 μg/ml) of a test compound employing an automatic inoculator (Dynatech, USA), and incubated at 37° C. for 18 hours. When the incubation was completed, the minimum inhibitory concentration was determined. Meropenem (Yuhan corporation, Korea) and vancomycin (Cj Inco., Korea) were used as standard antibiotics, respectively.

[2] = system: Staphylococcus aureus 208E; assay: as above; format: cell-based; conditions: Staphylococcus aureus 208E
Procedure: as §1, §2

[3] = system: Staphylococcus aureus 121E; assay: as above; format: cell-based; conditions: Staphylococcus aureus 121E
Procedure: as §1, §2

[4] = system: Staphylococcus aureus 690E; assay: as above; format: cell-based; conditions: Staphylococcus aureus 690E
Procedure: as §1, §2

[5] = system: Staphylococcus aureus 693E; assay: as above; format: cell-based; conditions: Staphylococcus aureus 693E
Procedure: as §1, §2

[6] = system: Staphylococcus aureus 695E; assay: as above; format: cell-based; conditions: Staphylococcus aureus 695E
Procedure: as §1, §2

[7] = system: Staphylococcus aureus 692E; assay: as above; format: cell-based; conditions: Staphylococcus aureus 692E
Procedure: as §1, §2

[8] = system: Staphylococcus aureus 256E; assay: as above; format: cell-based; conditions: Staphylococcus aureus 256E
Procedure: as §1, §2

[9] = system: Staphylococcus aureus 697E; assay: as above; format: cell-based; conditions: Staphylococcus aureus 697E
Procedure: as §1, §2

[10] = system: Staphylococcus aureus 694E; assay: as above; format: cell-based; conditions: Staphylococcus aureus 694E
Procedure: as §1, §2

Escherichia coli 1507 E = assay: Measurement of Minimum Inhibitory Concentration (MIC); format: cell-based
Procedure: as §1, §2

Escherichia coli DC 2 = assay: as above; format: cell-based
Procedure: as §1, §2

[11] = system: Staphylococcus aureus 503; assay: as above; format: cell-based
Procedure: as §1, §2

Escherichia coli 078 = assay: as above; format: cell-based
Procedure: as §1, §2

[12] = system: Enterobacter cloacae P 99; assay: as above; format: cell-based
Procedure: as §1, §2

Escherichia coli TEM = assay: as above; format: cell-based; conditions: Escherichia coli TEM
Procedure: as §1, §2

[13] = system: Staphylococcus faecium MD 8b; assay: as above; format: cell-based; conditions: Staphylococcus faecium MD 8b
Procedure: as §1, §2

[14] = system: Enterobacter cloacae 1321 E; assay: as above; format: cell-based
Procedure: as §1, §2

[15] = system: Salmonella typhimurium 179; assay: as above; format: cell-based; conditions: Salmonella typhimurium 179
Procedure: as §1, §2

[16] = system: Staphylococcus aureus 285; assay: as above; format: cell-based
Procedure: as §1, §2

Escherichia coli DC 0 = assay: as above; format: cell-based
Procedure: as §1, §2

[17] = system: Klebsiella aerogenes 1522 E; assay: as above; format: cell-based
Procedure: as §1, §2

[18] = system: Staphylococcus pyogenes 308A; assay: as above; format: cell-based; conditions: Staphylococcus pyogenes 308A
Procedure: as §1, §2

[19] = system: Staphylococcus pyogenes 77A; assay: as above; format: cell-based; conditions: Staphylococcus pyogenes 77A
Procedure: as §1, §2

[20] = system: Klebsiella oxytoca 1082 E; assay: as above; format: cell-based
Procedure: as §1, §2

[21] = system: Staphylococcus epidermidis 178; assay: Measurement of Minimum Inhibitory Concentration (MIC), QRS; format: cell-based; conditions: QRS, Staphylococcus epidermidis 178
Procedure: as §1, §2

[22] = system: Staphylococcus epidermidis 291; assay: as above; format: cell-based; conditions: QRS, Staphylococcus epidermidis 291
Procedure: as §1, §2

[23] = system: Staphylococcus aureus 293; assay: as above; format: cell-based; conditions: QRS, Staphylococcus aureus 293
Procedure: as §1, §2

[24] = system: Staphylococcus aureus 179; assay: as above; format: cell-based; conditions: QRS, Staphylococcus aureus 179
Procedure: as §1, §2

[25] = system: Staphylococcus aureus 241; assay: as above; format: cell-based; conditions: QRS, Staphylococcus aureus 241
Procedure: as §1, §2

[26] = target: T1, Dihydropeptidase-1 (DHP-1) (Sus scrofa, UniProt P22412)
T1 sequence (P22412 17-384): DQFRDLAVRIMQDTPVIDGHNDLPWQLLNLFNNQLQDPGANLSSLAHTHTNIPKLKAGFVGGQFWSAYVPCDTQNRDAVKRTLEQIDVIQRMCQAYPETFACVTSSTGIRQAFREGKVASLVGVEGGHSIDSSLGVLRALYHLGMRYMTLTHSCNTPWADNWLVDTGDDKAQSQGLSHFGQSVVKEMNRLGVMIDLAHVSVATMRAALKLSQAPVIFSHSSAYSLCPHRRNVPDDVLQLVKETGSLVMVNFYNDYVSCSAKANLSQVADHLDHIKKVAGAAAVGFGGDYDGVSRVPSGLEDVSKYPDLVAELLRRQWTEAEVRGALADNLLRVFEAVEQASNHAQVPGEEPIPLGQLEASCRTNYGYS
Procedure: The rate of degradation of the inventive compounds by the action of DHP-1 enzyme extracted from hog kidney was determined as follow.
0.2 unit of the enzyme was allowed to react with the above solution at 30° C., and the absorbance at 299 nm of the remaining medicament was measured to determine the degradation rate. The absorbance was measured at 0, 0.5, 1, 2 and 4 hour points, and T1/2, the time when the concentration of the medicament become the half, was obtained by regression analysis.

[27] = Test of Pharmacokinetics in Animals (mice); format: in vivo; conditions: mouse, in vivo, 40 mg/kg
Procedure: The pharmacokinetics of the carbapenem derivatives of the present invention was determined using mice. […] Standard antibiotic samples were prepared by serial two-fold dilution with control blood. […] PK (pharmacokinetic) change indicators (AUC, Tmax, Cmax and T1/2) of the test compound concentration remaining in the mouse blood over time were assayed over a set period.

C[C@@H](O)[C@H]1C(=O)N2C(C(=O)[O-])=C(SC3CN(Cc4ccccc4)C3)[C@H](C)[C@H]12.[K+] [Exam. 13, Potassium(1R,5S,6S)-2-(1-benzyl-azetidine-3-yl-thio)-6-[(1R)-1-hydroxylethyl]-1-methylcarbapen-2-em-3-carboxylate]
MIC [1]: 0.025 µg/mL
MIC [2]: 0.049 µg/mL
MIC [3]: 0.025 µg/mL
MIC [4]: 0.391 µg/mL
MIC [5]: 3.125 µg/mL
MIC [6]: 0.391 µg/mL
MIC [7]: 0.025 µg/mL
MIC [8]: 0.013 µg/mL
MIC [9]: 0.025 µg/mL
MIC [10]: 1.563 µg/mL
MIC (Escherichia coli 1507 E): 0.049 µg/mL
MIC (Escherichia coli DC 2): 0.025 µg/mL
MIC [11]: 0.013 µg/mL
MIC (Escherichia coli 078): 0.049 µg/mL
MIC [12]: 0.098 µg/mL
MIC (Escherichia coli TEM): 0.049 µg/mL
MIC [13]: 1.563 µg/mL
MIC [14]: 0.049 µg/mL
MIC [15]: 0.049 µg/mL
MIC [16]: 0.025 µg/mL
MIC (Escherichia coli DC 0): 0.098 µg/mL
MIC [17]: 0.098 µg/mL
MIC [18]: 0.002 µg/mL
MIC [19]: 0.002 µg/mL
MIC [20]: 0.049 µg/mL
MIC [21]: 0.391 µg/mL
MIC [22]: 0.391 µg/mL
MIC [23]: 0.098 µg/mL
MIC [24]: 0.049 µg/mL
MIC [25]: 0.049 µg/mL
T1/2 (time when the concentration of the medicament become the half) [26]: 19.28
AUC, times higher than meropenem [27]: 10 to 12 times
increase in T1/2 than meropenem [27]: more than 2 times
AUC (area under blood-medicament concentration curve till 24 hours from administration) ([27]; po): 1730 ng·h/mL
Cmax ([27]; po): 1060 ng/mL
T1/2 (half time of blood-medicament concentration) ([27]; po): 48.6 min
Tmax ([27]; po): 29.4 min
absorption through the oral route ([27]; po): absorbed through the oral route to significant extents
AUC (area under blood-medicament concentration curve till 24 hours from administration) ([27]; sc): 94760 ng·h/mL
Cmax ([27]; sc): 86830 ng/mL
T1/2 (half time of blood-medicament concentration) ([27]; sc): 55.2 min
Tmax ([27]; sc): 13.2 min

C[C@@H](O)[C@H]1C(=O)N2C(C(=O)[O-])=C(SC3CN(Cc4ccc(F)cc4)C3)[C@H](C)[C@H]12.[K+] [Exam. 19, Potassium(1R,5S,6S)-2-[1-(4-fluorobenzyl)-azetidine-3-yl-thio]-6-[(1R)-1-hydroxylethyl]-1-methylcarbapen-2-em-3-carboxylate]
MIC [1]: 0.049 µg/mL
MIC [2]: 0.025 µg/mL
MIC [3]: 0.049 µg/mL
MIC [4]: 0.391 µg/mL
MIC [5]: 3.125 µg/mL
MIC [6]: 0.195 µg/mL
MIC [7]: 0.025 µg/mL
MIC [8]: 0.025 µg/mL
MIC [9]: 0.049 µg/mL
MIC [10]: 3.125 µg/mL
MIC (Escherichia coli 1507 E): 0.049 µg/mL
MIC (Escherichia coli DC 2): 0.025 µg/mL
MIC [11]: 0.013 µg/mL
MIC (Escherichia coli 078): 0.025 µg/mL
MIC [12]: 0.098 µg/mL
MIC (Escherichia coli TEM): 0.049 µg/mL
MIC [13]: 1.563 µg/mL
MIC [14]: 0.049 µg/mL
MIC [15]: 0.049 µg/mL
MIC [16]: 0.025 µg/mL
MIC (Escherichia coli DC 0): 0.098 µg/mL
MIC [17]: 0.098 µg/mL
MIC [18]: 0.002 µg/mL
MIC [19]: 0.002 µg/mL
MIC [20]: 0.049 µg/mL
MIC [21]: 0.195 µg/mL
MIC [22]: 0.391 µg/mL
MIC [23]: 0.195 µg/mL
MIC [24]: 0.049 µg/mL
MIC [25]: 0.049 µg/mL
T1/2 (time when the concentration of the medicament become the half) [26]: 28.16
